According to patent US20230365559A1, “NOVEL AMINOPYRIDINES AND THEIR USE IN TREATING CANCER” (priority 2020, published 2023):
“And” between values parts separate entries of the source, which are not always exact repeats. Identical values can stand only once. Like-named read-outs stand apart in the source and are kept apart here.

What was measured:
[1] = biological target: ATM (Homo sapiens, UniProt Q13315); test: ATM Human PIKK Kinase Enzymatic ELISA/EIA Assay, KinaseProfiler (Eurofins Discovery); assay type: biochemical; details: for IC50: KinaseProfiler, Km ATP, Table 15, read-out: Inhibition of PIKK kinase activity ATM
[2] = test system: HAP1/PRKDC−/− cells; test: Radiosensitisation of DNA-PK null HAP1/PRKDC−/− cells, regrowth assay; assay type: cell-based, human; details: for radiosensitisation / differential growth inhibition of DNA-PK null HAP1 line: 3 Gy, HAP1/PRKDC−/−; for IC50: Homo sapiens, HAP1
[3] = test system: HAP1 cells; test: Radiosensitisation of HAP1 wild type cells, regrowth assay; assay type: cell-based, human; details: for radiosensitisation / differential growth inhibition of HAP1 cells: 3 Gy cobalt-60 gamma irradiation relative to radiation-only; for IC50: Homo sapiens, HAP1, read-out: HAP1 wt IC50
[4] = biological target: human PI3Kα (p110α/p85α) (Homo sapiens, UniProt P42336); test: Inhibition of PI3Kα kinase activity, ADP-Glo Assay (Reaction Biology); assay type: biochemical; details: 10 μM ATP; mean of two replicates; Table 12; read-out: Inhibition of kinase activity (as IC50) PICK
[5] = test system: UT-SCC-54C cells; test: Radiosensitisation of UT-SCC-54C HNSCC cells, regrowth (sulforhodamine B) assay, oxic (Table 16); assay type: cell-based, human; details: for IC50: Homo sapiens, read-out: IC50; for S50: compound in combination with 3 Gy of radiation, 50% inhibition of regrowth fraction, UT-SCC-54C; for S50 / radiosensitisation / differential growth inhibition of UT-SCC-54C cells: oxic; for radiosensitisation / differential growth inhibition of UT-SCC-54C cells: 0 or 3 Gy, regrowth assay
[6] = biological target: human mTOR (Homo sapiens, UniProt P42345); test: Inhibition of mTOR kinase activity, HotSpot assay, phosphorylation of 4EPB1
[7] = biological target: human DNA-PK (Homo sapiens, UniProt P78527); test: Inhibition of DNA-PKcs kinase activity, HotSpot assay (Reaction Biology), [γ-33P]-ATP phosphorylation of peptide substrate; assay type: biochemical
[8] = biological target: T1, Ser1981 of ataxia-telangiectasia mutated (ATM) (Homo sapiens, UniProt Q13315); test: Inhibition of phosphorylation of Ser1981 of ATM in UT-SCC-54C cells, western immunoblotting; assay type: cell-based; details: oxia, 10 Gy, FIG. 7 (10 μM)
T1 construct: Ser1981 of ataxia-telangiectasia mutated (ATM) in UT-SCC-54C cells

[9] = test system: UT-SCC-54C cells; test: Radiosensitisation of UT-SCC-54C HNSCC cells, clonogenic survival, oxic and anoxic (Table 18); assay type: cell-based, human; details: for Plating efficiency drug/no drug: no radiation; for SER (sensitiser enhancement ratio): UT-SCC-54C, anoxic conditions, FIG. 10
[10] = biological target: Ser2056 of DNA-PKcs (Homo sapiens, UniProt P78527); test: Inhibition of cellular autophosphorylation at Ser2056 of DNA-PKcs in UT-SCC-54C cells, western immunoblotting; assay type: cell-based; details: for inhibition of Ser2056 on DNA-PKcs: oxia, FIG. 7 (10 μM)
[11] = biological target: ATR/ATRIP (Homo sapiens, UniProt Q13535); test: ATR/ATRIP Human PIKK Kinase Enzymatic Radiometric Assay, KinaseProfiler (Eurofins Discovery); assay type: biochemical; details: Km ATP, Table 15, read-out: Inhibition of PIKK kinase activity ATR
[12] = Inhibition of PIKK kinase activity mTOR/FRAP (nM), HotSpot assay Reaction Biology Corp., Table 15
[13] = Inhibition of kinase activity (as IC50) mTOR (nM), 10 μM ATP, mean of two replicates, Table 12
[14] = 10 μM ATP, 10 μg/ml DNA, mean of two replicates, Table 12, read-out: Inhibition of kinase activity (as IC50) DNA-PK (converted)
[15] = HotSpot assay Reaction Biology Corp., Table 15, read-out: Inhibition of PIKK kinase activity DNA-PK

ATM, sequence (Q13315 whole entry): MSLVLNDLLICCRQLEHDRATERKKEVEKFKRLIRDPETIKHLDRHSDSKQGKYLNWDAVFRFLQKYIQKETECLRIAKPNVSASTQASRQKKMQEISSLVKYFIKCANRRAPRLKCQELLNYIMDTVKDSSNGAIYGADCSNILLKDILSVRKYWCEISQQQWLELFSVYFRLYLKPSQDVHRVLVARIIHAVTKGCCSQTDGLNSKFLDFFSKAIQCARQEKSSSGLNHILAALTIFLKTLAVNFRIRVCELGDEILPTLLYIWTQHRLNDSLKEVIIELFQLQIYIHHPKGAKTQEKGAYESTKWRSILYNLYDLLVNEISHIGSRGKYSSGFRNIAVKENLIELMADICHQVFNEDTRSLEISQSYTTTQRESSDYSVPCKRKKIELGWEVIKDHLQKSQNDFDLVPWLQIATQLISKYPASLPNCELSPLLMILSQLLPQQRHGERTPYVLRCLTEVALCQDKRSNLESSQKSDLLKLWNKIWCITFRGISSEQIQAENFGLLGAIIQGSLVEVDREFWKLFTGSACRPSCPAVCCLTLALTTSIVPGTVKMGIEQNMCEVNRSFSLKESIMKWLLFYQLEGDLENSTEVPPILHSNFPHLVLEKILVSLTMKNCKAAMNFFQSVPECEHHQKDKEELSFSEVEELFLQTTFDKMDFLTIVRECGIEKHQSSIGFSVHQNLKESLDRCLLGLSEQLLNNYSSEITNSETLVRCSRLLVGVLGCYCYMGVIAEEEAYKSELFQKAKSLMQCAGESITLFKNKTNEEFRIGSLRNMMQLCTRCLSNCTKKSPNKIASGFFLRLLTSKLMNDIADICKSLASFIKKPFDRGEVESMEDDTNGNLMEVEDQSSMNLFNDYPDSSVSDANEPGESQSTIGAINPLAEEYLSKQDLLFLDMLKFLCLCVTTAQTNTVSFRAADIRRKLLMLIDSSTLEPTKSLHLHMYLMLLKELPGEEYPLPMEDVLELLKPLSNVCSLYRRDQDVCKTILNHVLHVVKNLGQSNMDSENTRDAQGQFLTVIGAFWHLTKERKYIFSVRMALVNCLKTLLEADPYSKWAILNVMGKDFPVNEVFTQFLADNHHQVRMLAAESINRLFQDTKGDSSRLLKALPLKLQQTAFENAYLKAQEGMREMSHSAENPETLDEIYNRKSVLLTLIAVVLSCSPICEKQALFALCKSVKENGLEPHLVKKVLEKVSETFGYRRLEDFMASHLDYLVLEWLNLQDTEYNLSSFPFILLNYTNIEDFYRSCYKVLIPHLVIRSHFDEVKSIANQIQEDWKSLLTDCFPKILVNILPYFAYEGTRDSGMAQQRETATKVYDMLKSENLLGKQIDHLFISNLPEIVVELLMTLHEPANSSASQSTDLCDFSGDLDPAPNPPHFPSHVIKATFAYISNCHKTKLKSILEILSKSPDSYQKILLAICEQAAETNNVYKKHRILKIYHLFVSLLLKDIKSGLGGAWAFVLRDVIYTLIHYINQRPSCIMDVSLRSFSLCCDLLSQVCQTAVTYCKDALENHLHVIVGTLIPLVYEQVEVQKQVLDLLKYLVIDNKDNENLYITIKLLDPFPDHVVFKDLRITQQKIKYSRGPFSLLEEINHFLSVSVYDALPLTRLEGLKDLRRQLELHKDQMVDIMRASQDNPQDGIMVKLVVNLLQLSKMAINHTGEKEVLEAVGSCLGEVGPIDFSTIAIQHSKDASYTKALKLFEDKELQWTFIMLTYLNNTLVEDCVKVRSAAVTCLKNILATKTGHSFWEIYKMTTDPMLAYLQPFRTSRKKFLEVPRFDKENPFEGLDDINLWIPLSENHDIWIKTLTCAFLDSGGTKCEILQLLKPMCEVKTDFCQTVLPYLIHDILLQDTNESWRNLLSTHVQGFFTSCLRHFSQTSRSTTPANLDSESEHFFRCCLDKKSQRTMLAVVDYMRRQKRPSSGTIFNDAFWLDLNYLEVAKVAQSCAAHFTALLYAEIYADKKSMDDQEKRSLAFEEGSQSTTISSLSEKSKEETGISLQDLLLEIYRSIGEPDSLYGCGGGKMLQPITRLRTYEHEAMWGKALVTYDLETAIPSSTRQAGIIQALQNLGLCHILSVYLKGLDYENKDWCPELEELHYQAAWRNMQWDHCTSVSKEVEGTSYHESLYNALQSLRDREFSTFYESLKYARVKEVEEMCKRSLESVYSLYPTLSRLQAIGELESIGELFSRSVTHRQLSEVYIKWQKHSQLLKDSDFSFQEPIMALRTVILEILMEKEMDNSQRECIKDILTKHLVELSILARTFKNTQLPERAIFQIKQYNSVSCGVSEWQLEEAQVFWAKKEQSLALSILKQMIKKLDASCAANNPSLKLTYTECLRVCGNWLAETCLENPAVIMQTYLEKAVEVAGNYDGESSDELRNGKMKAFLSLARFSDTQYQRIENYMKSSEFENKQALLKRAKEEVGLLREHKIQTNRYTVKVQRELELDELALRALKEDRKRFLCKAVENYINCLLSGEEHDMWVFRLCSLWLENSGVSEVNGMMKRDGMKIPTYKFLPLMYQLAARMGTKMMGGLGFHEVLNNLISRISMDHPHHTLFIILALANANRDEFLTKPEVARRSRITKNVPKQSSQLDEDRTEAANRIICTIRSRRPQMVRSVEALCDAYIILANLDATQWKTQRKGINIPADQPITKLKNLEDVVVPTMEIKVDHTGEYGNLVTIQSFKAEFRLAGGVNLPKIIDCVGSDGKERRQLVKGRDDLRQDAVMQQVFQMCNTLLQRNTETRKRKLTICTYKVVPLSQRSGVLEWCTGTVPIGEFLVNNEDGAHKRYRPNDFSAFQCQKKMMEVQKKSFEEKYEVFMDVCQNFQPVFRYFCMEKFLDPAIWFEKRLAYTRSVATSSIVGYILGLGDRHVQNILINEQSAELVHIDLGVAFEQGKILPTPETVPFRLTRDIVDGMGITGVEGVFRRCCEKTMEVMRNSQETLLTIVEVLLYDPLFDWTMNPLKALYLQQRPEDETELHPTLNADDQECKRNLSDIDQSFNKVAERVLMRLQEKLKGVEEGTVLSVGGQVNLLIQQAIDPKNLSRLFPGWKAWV
human PI3Kα (p110α/p85α), sequence (P42336 whole entry): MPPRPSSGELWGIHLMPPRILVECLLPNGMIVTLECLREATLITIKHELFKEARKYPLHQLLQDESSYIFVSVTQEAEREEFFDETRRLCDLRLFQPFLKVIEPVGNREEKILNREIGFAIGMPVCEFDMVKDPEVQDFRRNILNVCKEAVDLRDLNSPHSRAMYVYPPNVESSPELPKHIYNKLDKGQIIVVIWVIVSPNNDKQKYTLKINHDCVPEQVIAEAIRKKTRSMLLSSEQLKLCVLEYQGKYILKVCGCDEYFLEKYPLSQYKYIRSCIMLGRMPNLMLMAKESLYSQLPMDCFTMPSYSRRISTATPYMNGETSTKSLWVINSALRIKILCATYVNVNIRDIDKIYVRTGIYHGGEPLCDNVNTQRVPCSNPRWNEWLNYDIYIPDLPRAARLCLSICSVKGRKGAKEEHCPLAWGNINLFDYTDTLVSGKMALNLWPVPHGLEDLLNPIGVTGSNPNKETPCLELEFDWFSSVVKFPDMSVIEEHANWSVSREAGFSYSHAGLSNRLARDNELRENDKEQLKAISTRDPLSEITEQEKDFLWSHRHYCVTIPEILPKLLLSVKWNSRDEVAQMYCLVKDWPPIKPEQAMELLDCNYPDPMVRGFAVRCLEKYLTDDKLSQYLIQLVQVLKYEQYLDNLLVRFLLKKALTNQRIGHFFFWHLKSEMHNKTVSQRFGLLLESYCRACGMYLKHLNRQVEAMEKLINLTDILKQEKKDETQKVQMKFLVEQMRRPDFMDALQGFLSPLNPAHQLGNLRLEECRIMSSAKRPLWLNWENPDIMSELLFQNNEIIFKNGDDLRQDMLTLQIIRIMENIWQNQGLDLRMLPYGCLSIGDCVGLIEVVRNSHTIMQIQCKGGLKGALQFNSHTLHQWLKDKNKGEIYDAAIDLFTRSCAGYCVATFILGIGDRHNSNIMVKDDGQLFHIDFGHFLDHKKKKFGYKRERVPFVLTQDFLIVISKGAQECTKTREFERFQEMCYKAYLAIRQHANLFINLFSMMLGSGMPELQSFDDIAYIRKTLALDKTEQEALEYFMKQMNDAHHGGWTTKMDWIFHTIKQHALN
human PI3Kα (p110α/p85α), sequence (P27986 whole entry partner): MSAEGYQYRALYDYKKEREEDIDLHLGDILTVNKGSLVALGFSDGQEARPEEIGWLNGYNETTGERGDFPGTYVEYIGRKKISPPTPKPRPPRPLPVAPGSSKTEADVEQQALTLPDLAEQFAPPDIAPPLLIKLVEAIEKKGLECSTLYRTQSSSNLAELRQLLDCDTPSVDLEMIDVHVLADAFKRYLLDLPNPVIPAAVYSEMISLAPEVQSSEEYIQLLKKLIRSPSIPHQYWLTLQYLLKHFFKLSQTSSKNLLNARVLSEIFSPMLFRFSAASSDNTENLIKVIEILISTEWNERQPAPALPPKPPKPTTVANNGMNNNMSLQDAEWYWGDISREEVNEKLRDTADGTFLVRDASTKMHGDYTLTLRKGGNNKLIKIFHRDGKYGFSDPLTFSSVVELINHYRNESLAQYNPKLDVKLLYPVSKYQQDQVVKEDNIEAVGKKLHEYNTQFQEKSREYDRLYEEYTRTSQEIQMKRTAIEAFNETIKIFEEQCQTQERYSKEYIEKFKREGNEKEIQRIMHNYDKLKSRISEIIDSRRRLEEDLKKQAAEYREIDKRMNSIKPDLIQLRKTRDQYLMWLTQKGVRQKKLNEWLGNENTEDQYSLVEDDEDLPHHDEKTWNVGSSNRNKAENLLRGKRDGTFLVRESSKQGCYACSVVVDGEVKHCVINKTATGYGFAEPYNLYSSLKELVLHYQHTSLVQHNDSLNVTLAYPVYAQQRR
T1 sequence (Q13315 whole entry, change not shown): as the sequence (Q13315 whole entry) above

Row | Structure (SMILES) | radiosensitisation / differential growth inhibition of DNA-PK null HAP1 line [2] | IC50 [2] | radiosensitisation / differential growth inhibition of HAP1 cells [3] | IC50 [3] | IC50 [4] | IC50 [5] | S50 [5] | IC50 [6, 12] | IC50 [6, 13] | IC50 [7, 14] | IC50 [7, 15] | IC50 [1] | SER (sensitiser enhancement ratio) ([9]; clonogenic survival) | radiosensitisation / differential growth inhibition of UT-SCC-54C cells [5] | inhibition of Ser2056 on DNA-PKcs ([10]; 10 Gy) | IC50 [11] | further results
1 | CCOC(=O)c1cnc2cc(C)c(Nc3cc4c(cn3)n(C)c(=O)n4C3CCOCC3)cn12 [Compound 129, Ethyl 7-Methyl-6-((3-methyl-2-oxo-1-(tetrahydro-2H-pyran-4-yl)-2,3-dihydro-1H-imidazo[4,5-c]pyridin-6-yl)amino)imidazo[1,2-a]pyridine-3-carboxylate] | did not radiosensitise | > 10 µM | concentration-dependent radiosensitisation | > 10 µM | 0.314 µM | > 10 µM | 0.09 µM | 18900 nM | 19000 nM | 0.00257 µM | 0.00257 µM |  |  |  |  |  | remaining activity at 1 µM ([1]; read-out: ATM, Percent of control at 1 μM): 79%; effect in unirradiated HAP1 cells ([3]; 0 Gy): little effect
2 | Cc1cc(OCc2cnc([N+](=O)[O-])n2C)ccc1Nc1cc2c(cn1)n(C)c(=O)n2C1CCCC1 [Compound 234, 1-Cyclopentyl-3-methyl-6-((2-methyl-4-((1-methyl-2-nitro-1H-imidazol-5-yl)methoxy)phenyl)amino)-1,3-dihydro-2H-imidazo[4,5-c]pyridin-2-one] | did not demonstrate any differential growth inhibition | 8.6 µM | did not demonstrate any differential growth inhibition | 9.74 µM | 0.877 µM | 10.6 µM | 10.9 µM | 30000 nM | 30000 nM | 0.766 µM | 0.766 µM | > 100 µM | 1.37 | did not display any differential growth inhibition | did not inhibit | > 100 µM | inhibition of phosphorylation of Ser1981 on ATM [8]: did not inhibit; D1 (radiation dose for 1% surviving fraction) ([9]; 0% O2, compound conc 10 μM): 9.72 Gy; D10 (radiation dose for 10% surviving fraction) ([9]; 0% O2, compound conc 10 μM): 6.78 Gy; SER1 (sensitiser enhancement ratio at 1% surviving fraction) ([9]; 0% O2, compound conc 10 μM): 1.25; SER10 (sensitiser enhancement ratio at 10% surviving fraction) ([9]; 0% O2, compound conc 10 μM): 1.79; Plating efficiency drug/no drug ([9]; 0% O2, compound conc 10 μM): 1.01; D1 (radiation dose for 1% surviving fraction) ([9]; 20% O2, compound conc 10 μM): 7.43 Gy; D10 (radiation dose for 10% surviving fraction) ([9]; 20% O2, compound conc 10 μM): 4.96 Gy; SER1 (sensitiser enhancement ratio at 1% surviving fraction) ([9]; 20% O2, compound conc 10 μM): 1.16; SER10 (sensitiser enhancement ratio at 10% surviving fraction) ([9]; 20% O2, compound conc 10 μM): 1.13; Plating efficiency drug/no drug ([9]; 20% O2, compound conc 10 μM): 1.57; radiosensitisation of UT-SCC-54C cells under oxic conditions ([9]; oxic, clonogenic survival, FIG. 9): does not; inhibition of radiation-induced Ser2056 autophosphorylation under anoxia ([10]; anoxic, FIG. 6 (20 μM)): able to inhibit phosphorylation; inhibition of Ser2056 autophosphorylation under oxia ([10]; oxic, 10 Gy, FIG. 5 (20 μM)): little inhibition
3 | Cc1cc(OCc2cnc([N+](=O)[O-])n2C)ccc1Nc1cc2c(cn1)n(C)c(=O)n2C1CCOCC1 [Compound 236, 3-Methyl-6-((2-methyl-4-((1-methyl-2-nitro-1H-imidazol-5-yl)methoxy)phenyl)amino)-1-(tetrahydro-2H-pyran-4-yl)-1,3-dihydro-2H-imidazo[4,5-c]pyridin-2-one] | did not demonstrate any differential growth inhibition | > 10 µM | did not demonstrate any differential growth inhibition | > 10 µM | 16.2 µM and 52.3 µM | > 10 µM | >10 µM | 92900 nM | 92900 nM and > 100000 nM | 0.78 µM and 2.2 µM | 0.78 µM | 57.3 µM | 1.51 | did not display any differential growth inhibition |  | > 100 µM | D1 (radiation dose for 1% surviving fraction) ([9]; 0% O2, compound conc 1 μM): 17.4 Gy; D10 (radiation dose for 10% surviving fraction) ([9]; 0% O2, compound conc 1 μM): 9.96 Gy; SER1 (sensitiser enhancement ratio at 1% surviving fraction) ([9]; 0% O2, compound conc 1 μM): 1.37; SER10 (sensitiser enhancement ratio at 10% surviving fraction) ([9]; 0% O2, compound conc 1 μM): 1.58; Plating efficiency drug/no drug ([9]; 0% O2, compound conc 1 μM): 1.09; D1 (radiation dose for 1% surviving fraction) ([9]; 20% O2, compound conc 1 μM): 9.41 Gy; D10 (radiation dose for 10% surviving fraction) ([9]; 20% O2, compound conc 1 μM): 6.06 Gy; SER1 (sensitiser enhancement ratio at 1% surviving fraction) ([9]; 20% O2, compound conc 1 μM): 1.00; SER10 (sensitiser enhancement ratio at 10% surviving fraction) ([9]; 20% O2, compound conc 1 μM): 0.94; Plating efficiency drug/no drug ([9]; 20% O2, compound conc 1 μM): 1.05; sensitisation of UT-SCC-54C cells selectively under anoxia ([9]; oxic vs anoxic, clonogenic survival, FIGS. 9 and 10): provide sensitisation of UT-SCC-54C cells selectively under anoxia
4 | COc1ccc([C@@H](O)c2cc(-c3ncnc4cc(N5CCOCC5)ccc34)c(F)cc2Cl)nn1 [Compound M3814, reference compound] |  |  |  |  |  |  |  |  |  |  |  |  |  |  | demonstrated inhibition |  | 
